Test system: diamondback moth (Plutella xylostella)
Assay: Insecticidal effect on diamondback moth (Test Example 1)
Format: in vivo
Conditions: diamondback moth; judged by the criterion of Test Example 1
Description: Insecticidal effect on diamondback moth (Plutella xylostella) Adult diamondback moths were released and allowed to oviposit on a Chinese cabbage seedling. […] After air-drying, it was allowed to stand in a room thermostated at 25° C. Six days after the immersion, the hatched insects were counted. The mortality was calculated according to the following equation and the insecticidal effect was judged according to the criterion shown below. The test was carried out with triplicate groups of 10 insects. [table]

| SMILES | Insecticidal effect (Test Example 1), judged from mortality |
| --- | --- |
| CC(C)NC(=O)c1cccc(F)c1C(=O)Nc1ccc(C(F)(F)C(F)(F)F)cc1F [compound 1515] | A (100) |
| CC(C)NC(=O)c1c(I)cccc1C(=O)Nc1ccc(C(F)(C(F)(F)F)C(F)(F)F)cc1-c1ccccc1 [compound 1767] | A (100) |

Same assay, conditions: diamondback moth; judged by the mortality criterion of Test Example 1

| SMILES | Insecticidal effect, Test Example 1 |
| --- | --- |
| CNC(=O)c1c(C(=O)Nc2cc(Cl)ccc2C)cccc1[N+](=O)[O-] [compound 3] | C (89-80) |
| CC(C)NC(=O)c1cccc(Cl)c1C(=O)Nc1ccc(OC(F)F)c(F)c1 [compound 233] | A (100) |
| CC(C)NC(=O)c1cccc(Cl)c1C(=O)Nc1ccc(SC(F)(F)C(F)F)cc1 [compound 203] | A (100) |
| CC(C)NC(=O)c1cccc(Cl)c1C(=O)Nc1cc(Cl)c(OC(F)F)c(Cl)c1 [compound 227] | A (100) |
| Cc1cc(Cl)ccc1NC(=O)c1cc(Cl)ccc1C(=O)NC(C)C [compound 190] | A (100) |
| Cc1cc(Cl)ccc1NC(=O)c1c(C(=O)NC(C)C)ccc(Br)c1Br [compound 343] | A (100) |
| Cc1cc(Oc2c(F)c(F)c(F)c(F)c2F)ccc1NC(=O)c1ccccc1C(=O)NC(C)C [compound 73] | A (100) |
| CC(C)NC(=O)c1cccc(Cl)c1C(=O)Nc1cccc(Cl)c1Cl [compound 208] | A (100) |
| Cc1cc(C)c(NC(=O)c2c(Br)cccc2C(=O)NC(C)C)c(C)c1 [compound 304] | A (100) |
| CC(C)NC(=O)c1cc(Cl)ccc1C(=O)Nc1ccc(F)c(F)c1 [compound 174] | A (100) |
| Cc1c(Cl)ccc(NC(=O)c2c(I)cccc2C(=O)NC(C)C)c1C [compound 434] | A (100) |
| CC(C)NC(=O)c1ccccc1C(=O)Nc1cc(Cl)c(OC(F)F)c(Cl)c1 [compound 84] | A (100) |

Same assay, conditions: diamondback moth; mortality judged by criterion of Test Example 1

| SMILES | Insecticidal effect, Test Example 1 |
| --- | --- |
| Cc1cc(C(F)(F)C(F)(F)F)ccc1NC(=O)c1c(Cl)cccc1C(=O)NCCOc1ccc(Cl)cc1 [compound 1373] | A (100) |
| Cc1ccccc1CNC(=O)c1c(I)cccc1C(=O)Nc1ccc(OC(F)F)cc1C [compound 1434] | A (100) |
| CC(C)NC(=O)c1c(I)cccc1C(=O)Nc1ccc2nc(C(F)(F)C(F)(F)F)oc2c1 [compound 1180] | A (100) |
| Cc1cc(C(F)(F)C(F)(F)F)ccc1NC(=O)c1cccc(I)c1C(=O)N1CCCCC1 [compound 1082] | A (100) |
| Cc1cc(OC(F)(F)F)ccc1NC(=O)c1cc(I)ccc1C(=O)NC(C)C [compound 1247] | C (89-80) |
| CCCONC(=O)c1cccc(Cl)c1C(=O)Nc1ccc(C(F)(F)C(F)(F)F)cc1C [compound 1328] | A (100) |

Same assay, conditions: mortality judged according to the criterion shown in Test Example 1

| SMILES | Insecticidal effect on diamondback moth (Test Example 1), judged grade |
| --- | --- |
| CC(C)NC(=O)c1c(C(=O)Nc2cccc(OC(C)C)c2)cccc1[N+](=O)[O-] [compound 615] | A (100) |
| CCC(C)NC(=O)c1ccccc1C(=O)Nc1ccc(C(F)(F)F)cc1 (stereo not drawn) [compound 835] | A (100) |
| CC(C)NC(=O)c1cccc(Cl)c1C(=O)Nc1ccc(Oc2ccc(C(F)(F)F)cc2Cl)cc1F [compound 904] | A (100) |
| CC(C)NC(=O)c1cccc(F)c1C(=O)Nc1ccc(Oc2ccc(C(F)(F)F)cc2Cl)cc1F [compound 902] | A (100) |
| Cc1ccc(Cl)cc1NC(=O)c1cccc([N+](=O)[O-])c1C(=O)NC1CCC1 [compound 854] | A (100) |
| CC(C)NC(=O)c1c(C(=O)Nc2ccccc2F)cccc1[N+](=O)[O-] [compound 592] | A (100) |
| Cc1cc(Oc2cccc(C(F)(F)F)c2)ccc1NC(=O)c1c(I)cccc1C(=O)NC(C)C [compound 458] | A (100) |

Reference: patent US6362369B1, “Phthalic acid diamide derivatives fluorine-containing aniline compounds as starting material, agricultural and horticultural insecticides, and a method for application of the insecticides” (Nihon Nohyaku Co., Ltd., priority 1997, dated 2002)
